Measured values published in ChEMBL document CHEMBL4190181 (Medchemcomm, 2016).

Legend:
Rattus norvegicus = species: Rattus norvegicus; assay: Positive allosteric modulation of AMPAR in Sprague-Dawley rat primary culture of cerebellar neurons assessed as potentiation of kainate-induced current at 10 uM by whole-cell patch clamp electrophysiological method relative to control
[1] = Drug level in rat liver microsomes treated with (+/-)-7-Chloro-5-(3-furanyl)-3-methyl-3,4-dihydro-2H-1,2,4-benzothiadiazine 1,1-dioxide assessed as CYP450-mediated metabolite formation at 10 uM after 60 mins by LC-MS/MS analysis; format: ADME; conditions: 1 h
[2] = Half life of the compound in pH 7.4 buffer assessed as compound racemization; format: physicochemical

Activity (Rattus norvegicus) [%]	Drug metabolism [1]	half-life [2] [h]	SMILES
8			CC1Nc2ccc(Cl)cc2S(=O)(=O)N1 (configuration not stated)
2590	Metabolite_Detected		C[C@@H]1Nc2c(-c3ccoc3)cc(Cl)cc2S(=O)(=O)N1
1600		1	CC1Nc2c(-c3ccoc3)cc(Cl)cc2S(=O)(=O)N1 (racemic)
488	Metabolite_Detected		C[C@H]1Nc2c(-c3ccoc3)cc(Cl)cc2S(=O)(=O)N1
